The source made the active and inactive calls.
Legend:
[1] = target: T1, Microphthalmia-associated transcription factor (Homo sapiens, UniProt O75030); test: TRPM1 promoter luciferase signal decrease, dose response, MITF inhibitor project, cell-based, SK-MEL-5, cherry-picked, set 3 (AID 493073); format: functional
T1 sequence (O75030 whole entry): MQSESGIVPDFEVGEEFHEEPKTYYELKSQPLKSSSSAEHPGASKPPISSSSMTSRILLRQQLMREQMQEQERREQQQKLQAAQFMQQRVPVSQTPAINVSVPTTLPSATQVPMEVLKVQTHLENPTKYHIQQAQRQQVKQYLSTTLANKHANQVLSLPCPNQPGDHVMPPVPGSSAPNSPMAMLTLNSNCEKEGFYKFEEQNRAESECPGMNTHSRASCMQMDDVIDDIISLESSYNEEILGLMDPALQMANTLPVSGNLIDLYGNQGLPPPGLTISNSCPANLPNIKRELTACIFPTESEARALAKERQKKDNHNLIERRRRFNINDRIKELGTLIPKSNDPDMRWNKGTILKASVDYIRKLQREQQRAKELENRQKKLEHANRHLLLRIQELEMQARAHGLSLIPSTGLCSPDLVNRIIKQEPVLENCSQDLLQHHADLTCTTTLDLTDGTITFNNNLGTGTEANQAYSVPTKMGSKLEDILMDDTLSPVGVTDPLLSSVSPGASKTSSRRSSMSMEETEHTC

[2] = target: T2, Apoptotic protease-activating factor 1 (Homo sapiens, UniProt O14727); format: functional
T2 sequence (O14727 whole entry): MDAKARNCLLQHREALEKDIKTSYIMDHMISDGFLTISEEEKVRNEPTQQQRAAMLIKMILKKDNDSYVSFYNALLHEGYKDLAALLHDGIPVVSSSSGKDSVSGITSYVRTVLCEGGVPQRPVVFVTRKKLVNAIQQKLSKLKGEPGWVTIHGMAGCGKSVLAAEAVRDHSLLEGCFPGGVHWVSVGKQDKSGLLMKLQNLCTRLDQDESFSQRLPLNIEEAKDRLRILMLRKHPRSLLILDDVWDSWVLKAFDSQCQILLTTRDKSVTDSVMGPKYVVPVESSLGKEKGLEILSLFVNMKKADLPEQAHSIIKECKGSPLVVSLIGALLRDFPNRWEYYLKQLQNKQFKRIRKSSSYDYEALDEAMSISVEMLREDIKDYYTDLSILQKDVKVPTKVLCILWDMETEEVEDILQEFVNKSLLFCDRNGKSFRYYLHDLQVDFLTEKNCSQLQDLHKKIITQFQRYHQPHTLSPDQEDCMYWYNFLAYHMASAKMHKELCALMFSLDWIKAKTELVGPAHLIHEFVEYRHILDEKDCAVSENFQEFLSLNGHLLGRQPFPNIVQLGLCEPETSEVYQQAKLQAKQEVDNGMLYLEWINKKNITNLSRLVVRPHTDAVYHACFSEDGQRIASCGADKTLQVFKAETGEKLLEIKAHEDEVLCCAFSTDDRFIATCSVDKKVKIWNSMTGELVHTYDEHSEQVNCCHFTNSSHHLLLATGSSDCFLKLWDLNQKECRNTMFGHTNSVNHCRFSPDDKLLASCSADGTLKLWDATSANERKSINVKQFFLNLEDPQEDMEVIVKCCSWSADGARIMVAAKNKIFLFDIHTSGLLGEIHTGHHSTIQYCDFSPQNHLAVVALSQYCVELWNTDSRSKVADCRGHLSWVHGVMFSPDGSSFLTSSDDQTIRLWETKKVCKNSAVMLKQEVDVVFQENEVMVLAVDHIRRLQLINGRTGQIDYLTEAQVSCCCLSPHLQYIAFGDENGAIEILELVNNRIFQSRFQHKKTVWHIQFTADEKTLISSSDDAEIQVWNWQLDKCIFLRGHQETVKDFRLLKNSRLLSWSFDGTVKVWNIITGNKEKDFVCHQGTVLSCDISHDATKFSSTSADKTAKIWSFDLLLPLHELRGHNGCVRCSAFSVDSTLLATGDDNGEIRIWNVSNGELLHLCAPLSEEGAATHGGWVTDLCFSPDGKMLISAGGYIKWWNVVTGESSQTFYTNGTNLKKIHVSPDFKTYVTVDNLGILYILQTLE

[3] = A375 melanoma cell viability loss, dose response, counter-screen for MITF inhibitor project, CellTiter-Glo luminescence, dry powder, set 4 (AID 624364); format: functional, cell-based; conditions: A-375;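 further: A375 melanoma cells are MITF independent so this is a counter screen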
[4] = A375 melanoma cell cytotoxicity, dose response, counter-screen for MITF inhibitor project, CellTiter-Glo luminescence, dry powder, set 2 (AID 624489); format: functional, cell-based; conditions: A-375;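 further: actives are compounds lowering A375 viability meaning general cytotoxicity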
[5] = growth suppression of PTEN-null colon cells, dose response, cell-based, HCT116 PTEN knockout (AID 1047); format: functional;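 further: HCT116 colon tumor cells with PTEN knocked out; cells exposed to compound for 60 hours before readout; potency for loss of cell viability measured by luminescence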
[6] = growth suppression of beta-catenin-knockout colon cells, dose response, cell-based, HCT116, human colon tumor (AID 1045); format: functional;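 further: HCT116 colon tumor cells with beta catenin knocked out; cells exposed to compound for 60 hours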
[7] = Luminescence Cell-Based Dose Retest to Confirm Inhibitors of Cancer Stem Cells. [Related pubchem assays (depositor defined):AID2717, AID2721]; format: functional; conditions: Homo sapiens
[8] = Vero cell cytotoxicity, dose response, cytotoxicity control for Vif-APOBEC3G degradation inhibitor project, Vero cells (AID 1117358); format: functional; conditions: Human immunodeficiency virus 1, Vero
[9] = target: Glutathione-S-transferase (Schistosoma japonicum, UniProt Q26513); test: biotin-GST/anti-GST TR-FRET signal inhibitors, dose response, artefact control for Vif-APOBEC3G degradation inhibitor project, biochemical (AID 1117362); format: functional
Chain of Glutathione-S-transferase (Q26513 whole entry): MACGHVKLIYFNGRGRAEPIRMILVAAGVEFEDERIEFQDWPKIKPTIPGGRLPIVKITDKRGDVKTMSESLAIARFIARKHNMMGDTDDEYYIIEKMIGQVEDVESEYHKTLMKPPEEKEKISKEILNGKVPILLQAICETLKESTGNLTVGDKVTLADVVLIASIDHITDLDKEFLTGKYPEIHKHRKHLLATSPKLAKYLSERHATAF

[10] = inhibitors of Vif binding to APOBEC3G peptide, primary screen, biochemical, TR-FRET, GST-Vif 1-94, biotin-A3G peptide, dose response retest (AID 1117319); format: functional;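 further: TR-FRET signal of purified GST-Vif binding a biotinylated A3G peptide; inhibitors lower the FRET signal by blocking Vif and A3G binding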
[11] = Artemis endonuclease inhibitor potency, dose response, biochemical, fluorescence intensity (AID 720701); format: functional;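 further: Artemis endonuclease enzyme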
[12] = target: T3, Caspase-6 (Homo sapiens, UniProt P55212); test: human caspase-6 inhibitors, dose response, biochemical, VEID-R110 fluorescence, cherry-pick (AID 720632)
T3 sequence (P55212 whole entry): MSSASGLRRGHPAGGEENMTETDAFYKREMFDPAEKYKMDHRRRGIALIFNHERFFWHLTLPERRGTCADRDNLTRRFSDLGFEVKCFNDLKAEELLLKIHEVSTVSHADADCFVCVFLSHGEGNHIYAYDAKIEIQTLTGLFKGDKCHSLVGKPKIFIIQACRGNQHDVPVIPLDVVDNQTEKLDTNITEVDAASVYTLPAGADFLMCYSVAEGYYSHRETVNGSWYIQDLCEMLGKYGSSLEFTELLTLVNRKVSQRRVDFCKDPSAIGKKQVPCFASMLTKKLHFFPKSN

[13] = target: Caspase-9 (Homo sapiens, UniProt P55211); test: caspase-9 enzyme inhibition, dose response, selectivity assay for caspase-6 inhibitor project, biochemical, fluorescence, plate reader, cherry-picked samples (AID 743293)
Chain of Caspase-9 (P55211 1-315 limits assumed): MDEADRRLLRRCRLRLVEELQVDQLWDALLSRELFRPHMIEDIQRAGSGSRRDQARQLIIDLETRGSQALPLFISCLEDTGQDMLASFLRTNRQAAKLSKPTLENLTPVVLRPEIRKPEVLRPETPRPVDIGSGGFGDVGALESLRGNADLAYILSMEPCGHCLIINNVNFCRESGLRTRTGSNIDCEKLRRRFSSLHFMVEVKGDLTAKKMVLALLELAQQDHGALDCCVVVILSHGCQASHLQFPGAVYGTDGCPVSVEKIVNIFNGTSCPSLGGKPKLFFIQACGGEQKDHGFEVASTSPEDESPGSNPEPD
Chain of Caspase-9 (P55211 331-416 limits assumed): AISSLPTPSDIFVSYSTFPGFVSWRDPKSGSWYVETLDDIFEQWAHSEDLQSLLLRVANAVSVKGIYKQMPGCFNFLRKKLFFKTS

[14] = target: T4, Tyrosyl-DNA phosphodiesterase 2 (Homo sapiens, UniProt O95551); test: human TDP2 enzyme inhibitors, dose response, biochemical, epi absorbance, IC50 (AID 743297)
T4 sequence (O95551 whole entry): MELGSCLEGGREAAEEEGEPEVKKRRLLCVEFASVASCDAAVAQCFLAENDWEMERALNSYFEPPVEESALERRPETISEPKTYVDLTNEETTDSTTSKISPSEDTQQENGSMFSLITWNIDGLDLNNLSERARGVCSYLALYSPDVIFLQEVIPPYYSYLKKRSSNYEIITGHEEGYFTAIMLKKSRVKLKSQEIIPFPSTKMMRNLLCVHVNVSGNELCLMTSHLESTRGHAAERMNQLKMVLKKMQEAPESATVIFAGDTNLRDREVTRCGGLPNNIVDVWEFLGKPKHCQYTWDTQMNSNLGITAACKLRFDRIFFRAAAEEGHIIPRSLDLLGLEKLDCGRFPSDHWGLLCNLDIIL

[15] = target: T5, Caspase-7 (Homo sapiens, UniProt P55210); test: human caspase-7 inhibitors, dose response, selectivity assay for caspase-6 inhibitor project, biochemical, DEVD-R110 fluorescence, cherry-pick (AID 743295)
T5 sequence (P55210 whole entry): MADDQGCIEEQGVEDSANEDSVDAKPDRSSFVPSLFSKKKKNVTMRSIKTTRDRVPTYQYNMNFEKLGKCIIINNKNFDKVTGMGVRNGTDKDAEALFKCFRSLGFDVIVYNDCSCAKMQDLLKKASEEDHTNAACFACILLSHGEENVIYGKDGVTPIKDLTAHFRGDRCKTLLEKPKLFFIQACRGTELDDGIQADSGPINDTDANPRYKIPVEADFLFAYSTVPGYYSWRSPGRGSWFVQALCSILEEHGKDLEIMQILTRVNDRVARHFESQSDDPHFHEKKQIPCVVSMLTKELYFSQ

[16] = target: Caspase-8 (Homo sapiens, UniProt Q14790); test: caspase-8 inhibition counter-screen, dose response, selectivity assay for caspase-6 inhibitor project, biochemical, Z-IETD-R110 fluorescence, cherry-picked samples (AID 743294)
Chain of Caspase-8 (Q14790 217-374 limits assumed): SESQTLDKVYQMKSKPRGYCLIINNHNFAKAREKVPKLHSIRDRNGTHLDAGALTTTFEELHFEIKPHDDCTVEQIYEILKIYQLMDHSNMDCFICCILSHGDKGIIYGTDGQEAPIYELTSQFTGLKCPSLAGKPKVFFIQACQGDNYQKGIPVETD
Chain of Caspase-8 (Q14790 385-479 limits assumed): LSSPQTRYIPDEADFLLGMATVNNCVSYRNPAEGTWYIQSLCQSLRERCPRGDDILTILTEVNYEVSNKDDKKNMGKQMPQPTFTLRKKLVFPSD

[17] = target: Sphingosine 1-phosphate receptor 2 (Homo sapiens, UniProt O95136); test: Dose Response Cell Based Assay for Antagonists of the S1P2 Receptor. [Related pubchem assays: 856, 736 ]; format: functional
Chain of Sphingosine 1-phosphate receptor 2 (O95136 whole entry): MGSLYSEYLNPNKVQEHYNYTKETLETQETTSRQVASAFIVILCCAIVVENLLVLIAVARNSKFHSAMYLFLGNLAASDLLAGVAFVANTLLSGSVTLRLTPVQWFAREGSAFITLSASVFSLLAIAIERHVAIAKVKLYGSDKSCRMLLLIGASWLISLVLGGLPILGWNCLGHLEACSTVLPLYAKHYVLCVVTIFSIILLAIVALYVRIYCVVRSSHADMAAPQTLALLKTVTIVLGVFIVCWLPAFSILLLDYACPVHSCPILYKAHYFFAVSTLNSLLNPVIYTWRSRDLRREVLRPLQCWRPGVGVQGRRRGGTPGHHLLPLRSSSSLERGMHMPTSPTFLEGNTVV

[18] = test system: Streptococcus sp. 'group A'; test: growth inhibition of control SK(-) GAS strain, dose response, counter-screen for streptokinase expression inhibitor project, luminescence, kanamycin, BacTiterGlo, confirmation (AID 1900); format: functional, organism-based
[19] = test system: Vero; test: host cell cytotoxicity of antiviral hits, dose response, cytotoxicity control for West Nile virus antiviral project, secondary assay (AID 1650); format: functional; conditions: Chlorocebus sabaeus
[20] = target: T6, Streptokinase A (Streptococcus pyogenes serotype M1, UniProt P10520); test: S. pyogenes streptokinase expression inhibitors, potency, dose response, plasminogen activation absorbance, OD405 (AID 1914); format: functional, Streptococcus pyogenes M1 GAS;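 further: secreted streptokinase activity via plasminogen activation per viability signal from cell pellet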
T6 sequence (P10520 whole entry): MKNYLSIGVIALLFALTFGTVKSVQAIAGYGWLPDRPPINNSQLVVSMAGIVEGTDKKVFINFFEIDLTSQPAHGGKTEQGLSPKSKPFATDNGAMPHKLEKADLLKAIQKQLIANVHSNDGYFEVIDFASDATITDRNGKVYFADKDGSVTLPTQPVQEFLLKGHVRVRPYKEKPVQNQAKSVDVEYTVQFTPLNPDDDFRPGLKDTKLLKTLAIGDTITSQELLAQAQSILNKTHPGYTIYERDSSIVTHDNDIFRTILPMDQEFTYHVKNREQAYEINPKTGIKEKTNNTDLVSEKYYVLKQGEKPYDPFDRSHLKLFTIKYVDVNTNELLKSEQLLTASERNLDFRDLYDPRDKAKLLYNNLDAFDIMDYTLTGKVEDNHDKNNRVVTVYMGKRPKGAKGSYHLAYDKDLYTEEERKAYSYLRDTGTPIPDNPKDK

[21] = test system: Streptococcus; test: Group A Streptococcus viability loss, dose response, counter-screen for streptokinase expression inhibitor project, luminescence, BacTiterGlo (AID 1915); format: functional, organism-based;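 further: potency for reduction of bacterial viability or growth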
[22] = test system: INS1; test: beta cell apoptosis inhibitors, cytokine rescue, dose response, luminescence, retest (AID 449756); format: functional, cell-based; conditions: Rattus norvegicus;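 further: cell death triggered by IL-1 beta plus TNF-alpha plus IFN-gamma mixture; protective hits raise ATP signal compared with cytokine alone wells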
[23] = HeLa 2N DNA content increase, dose response, cell-based, IC50 (AID 1117349); format: functional
[24] = HeLa 4N DNA content increase, dose response, cell-based, IC50 (AID 1117351); format: functional
[25] = P. falciparum Dd2 growth inhibitors, dose response, SYBR Green, dry powder samples, set 9 (AID 1159568); format: functional, cell-based
[26] = P. falciparum 3D7-ScDHODH growth inhibitors, dose response, SYBR Green, dry powder samples (AID 1159570); format: functional, cell-based;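 further: parasite growth measured after 72 hours of compound exposure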
[27] = HepG2 cell cytotoxicity, dose response, cytotoxicity control, plate reader, dry powder samples (AID 1159569); format: functional, cell-based;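 further: inhibitor potency with signal falling toward the positive control level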
[28] = P. falciparum Dd2 growth inhibitors, dose response, SYBR Green, cherry-picked samples (AID 1159567); format: functional, cell-based
[29] = P. falciparum Dd2 growth inhibitors, dose response, SYBR Green, dry powder samples (AID 1159566); format: functional, cell-based;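 further: potency for growth inhibition with lower SYBR green DNA signal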
[30] = HepG2 cell cytotoxicity, dose response, cytotoxicity control, cherry-picked samples (AID 1159577); format: functional, cell-based
[31] = P. falciparum ATP4 D1247Y mutant growth inhibitors, dose response, NITD609-resistant line, SYBR Green, dry powder (AID 1159571); format: functional, cell-based;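 further: parasites synchronized at ring stage by sorbitol before testing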

CN1CCN(C2=C(NS(=O)(=O)c3ccccc3)C(=O)c3ccccc3C2=O)CC1
AC50 [1]: 6.9 µM (active) | IC50 [2]: 39.1 µM (active) | AC50 [3]: 44.6 µM (active) | AC50 [4]: 28.1 µM (active)

COC(=O)c1ccc(COc2ccccc2/C=C(\C#N)C(=O)Nc2c(C)cc(C)cc2C)cc1
EC50 [5]: 5.83 µM (active) | EC50 [6]: 5.33 µM (active) | AC50 [7]: 1.28 µM (active) | CC50 [8]: 15.9 µM (active)

Cn1c(C(=O)NCCN2CCOCC2)cc2c(=O)n(C)c3ccccc3c21
IC50 [9]: > 100 µM (active) | IC50 [10]: > 100 µM (active)

O=C1c2ccccc2C(=O)N1OCc1cccc(Cl)c1
IC50 [11]: 2.09 µM (active)

O=C1NC(=O)C(=Cc2ccccc2[N+](=O)[O-])S1
AC50 [12]: 3.66 µM (active) | AC50 [13]: 16.1 µM (active) | IC50 [14]: 13.6 µM (inactive) | AC50 [15]: 9.01 µM (active) | AC50 [16]: 21 µM (active)

Cc1cc(/C=N/n2cnnc2)c(C)n1-c1ccc(OCc2ccc(Cl)cc2)cc1
IC50 [17]: 49.3 µM (not active) | EC50 [18]: 5.41 µM (active) | CC50 [19]: 1.02 µM (active) | EC50 [20]: 12.9 µM (active) | EC50 [21]: 12.3 µM (active) | AC50 [22]: 1.15 µM (active) | IC50 [11]: 15.7 µM (active)

CC(C)OC(=O)OCOP(=O)(CO[C@H](C)Cn1cnc2c(N)ncnc21)OCOC(=O)OC(C)C
IC50 [23]: > 10 µM (inactive) | IC50 [24]: > 10 µM (inactive)

O=C(Nc1ccc(F)cc1)N1C[C@@H]2[C@H](c3ccccc31)[C@@H](CO)N2Cc1ccccc1Cl
AC50 [25]: 12.3 µM (active)

COc1ccccc1C#Cc1ccc([C@@H]2[C@@H](CO)N3CCCCN(CCC(F)(F)F)C[C@H]23)cc1
AC50 [26]: 0.418 µM (active) | AC50 [27]: 9.58 µM (active) | AC50 [28]: 1.13 µM (active) | AC50 [29]: 0.254 µM (active) | AC50 [30]: 36.5 µM (active) | AC50 [31]: 0.221 µM (active)

CCCNC(=O)N1[C@H](CO)[C@H](c2ccc(C#Cc3cccc(F)c3)cc2)[C@@H]1C#N
AC50 [25]: 8.55 µM (active)

Source: ChEMBL document CHEMBL1201862, “PubChem BioAssay data set” (2004)
